Data from patent US20090081786A1, “Peptide sequences for modulation of protein kinase C” (priority 2006, published 2009).

How the values were obtained:
[1] = system: annexin V/δ-PKC complex; assay: co-immunoprecipitation of annexin V/δ-PKC complex from CHO cells; type: cell-based, hamster
Protocol: The complexes were immunoprecipitated with anti-δ-PKC antibodies and probed for the presence of annexin V at the combined molecular weight of about 110 kD.
CHO-K1 cells (available through the ATCC) were grown in F-12 (HAM) nutrient mixture supplemented with GLUTAMAX, 10% fetal bovine serum, and antibiotics (100 units/ml penicillin and […] streptomycin sulfate, all from Invitrogen Corp.). The cells were cultured at 37° C. under 5% CO2. At 48 hours prior to the study, the cells were serum starved. They were stimulated with 10 nM phorbol 12-myristate 13-acetate (PMA) (available through LC Laboratories) or with 5 mM H2O2 (available through Sigma Chemical Corp.) for the indicated duration ranging from about 30 seconds to about 5 minutes, a technique well-known to one of skill in the art. The cells were washed with cold PBS, and homogenized on ice with trituration in homogenization buffer (20 mM Tris pH 7.4, 2 mM EDTA, 10 mM EGTA, 0.25M sucrose, 12 mM β-mercaptoethanol, protease inhibitor cocktail (available through Sigma Chemical Corp)), 0.1% TRITON X-100, and 1% formaldehyde.
It was observed that the 0.1% TRITON extracts all of the translocatable PKC from the cell. After 30 min at 4° C., the lysates were quenched with 0.14M glycine for 20 min at 4° C., and the samples were spun at 14K rpm at 4° C. The supernatant was incubated with 1 μg anti-δ-PKC antibody (available through Santa Cruz Biotechnology) for 1 hour, followed by exposure to protein-G beads (available through Invitrogen Corp.) for 3 hours at 4° C. The beads were then washed with wash buffer (20 mM Tris pH 7.5, 2 mM EDTA, 100 mM NaCl, 12 mM β-mercaptoethanol, 0.1% TRITON), and separated on 7.5% SDS-PAGE, transferred to nitrocellulose, and probed with anti-annexin V (available through Santa Cruz Biotechnology), followed by visualization using an enhanced chemiluminescence (ECL) method.

[2] = system: δ-PKC; assay: real-time confocal imaging of YFP-δPKC translocation in CHO cells; type: cell-based, hamster; settings: 10 μM pretreatment for 30 minutes, 100 nM PMA, vs untreated
Protocol: CHO cells were grown on chambered #1 Borosilicate coverglass (Lab-Tek), transfected at 50% confluency using Fugene 6 (Roche), according to the manufacturer's instructions, with CFP-annexin V and YFP-δPKC cloned into the pECFP-C1 and pEYFP-C1 vectors, respectively (Clontech). The cells were serum starved for 24 hours. Real-time confocal imaging was conducted on a spinning disk Nipkow confocal microscope, and the cells were viewed using an inverted Olympus IX70 microscope with a 40× oil immersion Olympus objective (1.35 NA). Images were acquired using a CCD camera (Hamamatsu) with 2×2 pixel binning. […]
Fluorescence intensity was measured using METAMORPH data analysis software (Universal Imaging). To monitor the translocation of the PKC and the increases in FRET signal, a small region of interest was selected from each cell and fluorescence intensity values were graphed against time and normalized to the initial fluorescence. FRET was calculated using a formula that corrects for bleed-through and donor concentration: FRET=(I(442-530)-αI(442-480)-βI(515-530))/I(442-480). The α and β coefficients were calculated from singly transfected cells, where α=I(442-530)/I(442-480)=47.6% of CFP bleed-through into the YFP channel, and β=I(442-530)/I(515-530)=14.4% of YFP excitation from the CFP channel.

[3] = system: δ-PKC/annexin V; assay: δ-PKC/annexin V binding ELISA assay
[4] = system: isolated rat hearts; assay: ex vivo model of ischemia and reperfusion in isolated rat hearts; settings: 1 μM
Protocol: FIG. 6C compares the infarct sizes that were measured on both sides of the tissue slices and averaged. […] In FIG. 6D, creatine phosphokinase (CPK) release was measured in the heart perfusate during the reperfusion.

[5] = system: ε-PKC; assay: PMA-induced translocation of ε-PKC in CHO cells; type: cell-based, hamster; settings: peptide pretreatment
Protocol: (§1) The CHO cells of Example 1 were fractionated, stimulated, and washed with cold PBS, scraped in homogenization buffer, and spun at 100,000 g for 30 min at 4° C., resulting in the soluble fraction. The pellet was then resuspended in a homogenization buffer with 1% TRITON X-100, and spun under the same conditions. Where applicable, the cells were pre-incubated with 1 μM peptide for 15 minutes prior to stimulation. The samples were then analyzed using a Western blot, and the loading was corrected for protein concentration using an internal control such as actin.

[6] = system: δ-PKC; assay: PMA-induced translocation of δ-PKC from soluble to particulate fraction in CHO cells; type: cell-based, hamster; settings: 1 μM peptide pretreatment, 5 minutes of PMA stimulation
Protocol: as §1

[7] = biological target: T1, annexin V (Homo sapiens, UniProt P08758); assay: overlay binding assay on immobilized annexin V; settings: immobilized annexin V on nitrocellulose, overlay 37° C. 30 min, Western blotting
T1 sequence (P08758 1-320): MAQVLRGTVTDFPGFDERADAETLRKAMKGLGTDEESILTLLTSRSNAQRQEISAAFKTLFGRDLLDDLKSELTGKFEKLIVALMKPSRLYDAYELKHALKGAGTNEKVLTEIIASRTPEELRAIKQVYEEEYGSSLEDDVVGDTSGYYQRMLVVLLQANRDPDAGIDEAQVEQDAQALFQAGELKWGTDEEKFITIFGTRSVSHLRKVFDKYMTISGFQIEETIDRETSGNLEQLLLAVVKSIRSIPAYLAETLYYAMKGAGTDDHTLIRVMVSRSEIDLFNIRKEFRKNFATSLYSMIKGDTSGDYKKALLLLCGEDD
Protocol: A binding assay was performed in vitro, using an immobilized annexin V with the δ-PKC, δ-V1 (SEQ ID NO:18) (the C2 domain of δ-PKC), δ-V5 (SEQ ID NO:19), and ε-V1 (SEQ ID NO:20) peptides. These domains are recognized in the art as participating in protein-protein interactions.
10 μg of the annexin V was separated on 12% SDS-PAGE gel and transferred to nitrocellulose, and then cut into strips. The strips were incubated with blocking buffer (50 mM Tris pH 7.5, 200 mM NaCl, 3% bovine serum albumin, 0.1% PEG20). The strips were then incubated in overlay buffer (50 mM Tris pH 7.5, 200 mM NaCl, 1% PEG20, 12 mM β-mercaptoethanol) in the presence where appropriate of 30 μg crude bacterial cell lysate containing fusion proteins of myelin basic protein (MBP)-delta V1 PKC (MBP-δV1), glutathione-S-transferase-delta V5 PKC (GST-δV5), and full length sequences of δ-PKC or rat purified ε-PKC (SEQ ID NO:21) at 37° C. for 30 min. The strips where then washed with wash buffer (50 mM Tris pH 7.5, 200 mM NaCl, 0.1% PEG20, 12 mM β-mercaptoethanol), and then incubated with fixative (0.2% formaldehyde in PBS) and neutralizing solution (0.2M glycine in PBS) at room temperature 20 min each. After washing with buffer, the strips were probed with antibodies according to the overlay protein, and resulting bands were visualized using ECL Western blotting.

## OO [H2O2]
[1]; H2O2 5 mM, 0.5-1 minute treatment
  association between annexin V and δ-PKC: transient association

## CCCCCCCCCCCCCC(=O)O[C@@H]1[C@@H](C)[C@@]2(O)[C@@H](C=C(CO)C[C@]3(O)C(=O)C(C)=C[C@@H]23)[C@@H]2C(C)(C)[C@]12OC(C)=O [PMA, phorbol 12-myristate 13-acetate]
[1]; 10 nm PMA, within the first 0.5 minutes of treatment
  increase in the amount of annexin V/δ-PKC complex: ~4 fold

## COC(=O)Nc1nc2ccc(C(=O)c3cccs3)cc2[nH]1 [nocodazole]
[2]
  translocation profile of overexpressed δ-PKC: did not alter the translocation profile

## EpAnxV: pAnxV in which the arginine in annexin V was replaced with the glutamate found in δ-PKC (SEQ ID NO:33) (YGRKKRRQRRRCCLQANEDPD; listed as Homo sapiens)
[3]
  δ-PKC/annexin V binding in ELISA: no significant effect
[4]; 10 minutes prior to 30-minute no-flow ischemia and 10 minutes at onset of 60 minutes reperfusion, TTC staining
  reduction of infarct size: had no effect
[4]; CPK measured during reperfusion
  reduction in necrosis (creatine phosphokinase release in heart perfusate): did not show any statistical difference from the control heart
[4]; isolated rat hearts
  ischemia-induced δ-PKC-mediated damage to the heart: did not inhibit
[5]
  PMA-induced translocation of ε-PKC: neither peptide affected

## LQANRDPD [pAnxV, annexin V-derived peptide, annexin V residues 157-164, conjugated to TAT47-57 carrier peptide]
[3]
  δ-PKC/annexin V binding in ELISA: inhibited
[1]; peptide pretreatment
  δ-PKC/annexin V complex formation (immunoprecipitation): blocked
[5]
  PMA-induced translocation of ε-PKC: neither peptide affected
[6]
  PMA-induced translocation of δ-PKC to the particulate fraction: blocked

## δ-V5: V5 domain of δ-PKC (SEQ ID NO:19), used as glutathione-S-transferase fusion (PKVKSPSDYSNFDPEFLNEKPQLSFSDKNLIDSMDQEAFHGFSFVNPKFEQFLDI; left off: a dimerising Fc or GST)
[7]
  binding to annexin V: bind to the annexin V
